# Assay results taken from US20040106673A1, “Compositions and methods for inhibiting proliferation in human prostate cancer cells” (priority 2002, published 2004).
# Values joined by “and” are separate entries in the source; they are usually repeats but may differ in a detail not shown here. Equal values may be shown once.
# Legend:
# [1] = Blood levels of TPA after i.p. injection in NCr mice (HL-60 differentiation bioassay); type: in vivo, male NCr mice
# Method: Immunodeficient male NCr mice were used as they are a well-established mouse model for examination of human tumor cell growth. […] TPA was administered in a vehicle that consisted of propylene glycol, polysorbate 80, benzyl alcohol, ethanol, and water (40:0.5:1:10:48.5). Peak blood levels of TPA were in the range of 3 ng/ml (4.8 nM) after a 200 ng/g injection and 1 ng/ml (1.7 nM) after a 100 ng/g injection.
# The concentration of TPA in blood after an i.p. injection of TPA was measured by a bioassay that quantifies ethyl acetate-extractable differentiating activity in blood (Cui, X. X. et al. 2002. Oncol. Res. 13:169-174). Differentiating activity was measured in HL-60 cells. […] Although blood levels of bioactive material are expressed as ng of TPA/ml blood, the assay could include biologically active metabolites.
# LNCaP cells [2] = assay: Number of viable LNCaP cells (trypan blue exclusion); type: cell-based, human; conditions: for effect on LNCaP cell growth (FIG. 2): TPA alone 0.32 nM, ATRA alone 0.5 to 10 μM, or 0.32 nM TPA with increasing ATRA
# Method: LNCaP cells were seeded in culture dishes and incubated for 24 hours to allow the cells to attach to the culture dishes. The cells were then treated with ethanol (2 μl/ml) or TPA in ethanol (0.2 to 10 ng/ml) for 96 hours.
# The number of viable and dead cells was determined by trypan blue exclusion. […] The concentration of TPA that caused a 50% inhibition of LNCaP cell growth was 3 nM (IC50). The IC50 for TPA varied between 1 and 3 nM in different experiments.
# (§1) LNCaP cells were obtained from the American Type Culture Collection (Rockville, Md., USA). TPA was obtained from Alexis Co. (San Diego, Calif.). ATRA was obtained from Sigma Chemical Co. (St. Louis, Mo.). LNCaP cells were maintained in RPMI-1640 culture medium containing 10% fetal bovine serum that was supplemented with penicillin (100 units/ml), streptomycin (100 μg/ml) and L-glutamine (300 μg/ml) as described (Zheng, X. et al. 2000. Oncol. Res. 12:419=427). Cultured cells were grown at 37° C. in a humidified atmosphere of 5% CO2 and were passed twice a week. In all experiments, LNCaP cells were initially seeded at a density of 1×10^5 cells/ml in a final volume of 2 or 5 ml in 35 or 60 mm tissue culture dishes, respectively.
# To quantify the number of viable cells after each treatment, cells were counted using a hemacytometer under a light microscope. Cell viability was determined by the trypan blue exclusion assay, which was done by mixing 80 μl of cell suspension and 20 μl of 0.4% trypan blue solution for 2 minutes.
# LNCaP cells [3] = assay: Flow cytometry (propidium iodide): cell cycle distribution and apoptosis in cultured LNCaP cells; type: cell-based, human; conditions: for apoptotic cells (percent of pre-G0/G1 cells): single drug, TPA 0.16 or 0.32 nM
# Method: as §1, with “ATRA was obtained from Sigma Chemical Co. (St. Louis, Mo.).” left out
# To perform the analysis, 1×10^6 cells were washed with phosphate-buffered saline (PBS) and resuspended in 500 μl of stain solution (20 mg/ml polyethylene glycol 8000, 50 μg/ml propidium iodide, 0.1% Triton-X-100, and 0.4 M sodium chloride). The mixture was incubated at 4° C. overnight in the dark before being analyzed on a Coulter Epics-Profile II flow cytometer. Propidium iodide is a fluorescent dye that intercalates into the DNA double helix. Whether cells are in the G1 phase where they have two copies of their genome or in the G2/M phase where they have 4 copies of their genome, or in the S phase where their DNA is between the two states, can be determined by the amount of propidium iodide that intercalates into the DNA. Pre G0/G1 cells were considered apoptotic cells. The proportion of cells in each phase of the cell cycle was calculated using the cytologic software provided.
# LNCaP tumors [4] = assay: Mitotic cells and caspase 3 (active form) immunostaining in LNCaP tumors from treated mice; type: in vivo, male NCr mice; conditions: mice treated for 46 days
# Method: (§2) Tumor size and body weight were measured daily.
# Tumor sections used were stained by the horseradish peroxidase-conjugated-avidin method. Endogenous peroxidase was blocked by incubating the tissue sections in 3% hydrogen peroxide in methanol for 30 minutes at room temperature. Sections were then treated with 0.01 M sodium citrate buffer (pH 6.0) in a microwave oven at high temperature for 10 minutes. The sections were incubated with a protein block (normal goat serum) for 10 minutes, followed by avidin D for 15 minutes and biotin blocking solution for 15 minutes at room temperature. The sections were incubated with caspase 3 primary antibody (1:2000 dilution) for 30 minutes at room temperature followed by incubation with a biotinylated anti-rabbit secondary antibody for 30 minutes and incubation with conjugated-avidin solution for 30 minutes. Color development was achieved by incubation with 0.02% 3,3′-diaminobenzidine tetrahydrochloride containing 0.02% hydrogen peroxide for 10 minutes at room temperature. The slides were then counterstained with hematoxylin, dehydrated and coverslips were added for permanent mounting. A positive reaction was shown as a light brown to dark brown precipitate in the cytoplasm and/or perinuclei of the cells.
# LNCaP tumors [5] = assay: First in vivo study: TPA i.p. in NCr mice with LNCaP tumors, 13 days; design: species or system male NCr mice
# Method: With the feasibility of the use of TPA by i.p. injection now established, male NCr mice were injected subcutaneously with LNCaP cells in matragel. […] On day 3, the dose of TPA was increased (0.32 nmol/g; 5 μl vehicle/g body weight) and this dose level was administered i.p. for 11 days. The length and width of each tumor was measured at the start of the study and during treatment with TPA. Tumor size was expressed as cm^2 (length×width). There was a statistically significant inhibition of tumor cell growth in the TPA treated animals. The average tumor size in the vehicle-treated control group increased to about 200% of the initial tumor size while the average tumor size after 13 days of treatment with TPA was about 95% of the initial tumor size.
# as §2
# LNCaP tumors [6] = assay: Second in vivo study: TPA, ATRA or both i.p. in NCr mice with LNCaP tumors, 21 or 46 days; conditions: for percent of initial tumor size: TPA 0.16 nmol/g; for % of Mice with Tumor Growth / % of Mice with Tumor Regression: i.p.
# Method: Tumor cell growth was measured and expressed as percent of initial size (FIG. 3). […] In this table, mice in Group A (13 mice/group) were treated for 21 days, while mice in Group B (6 mice/group) were a subset of the original group and were treated for an additional 25 days.
# The effect of the 21 day treatments on body weight was examined in order to determine if there was the same level of toxicity seen in the first animal study.
# The results from the Group B animals were analyzed separately.
# Male Ncr immunodeficient mice (6 to 7 weeks old) were obtained from Taco Farms (Germantown, N.Y.). The animals were housed in sterile filter-capped microisolator cages and provided with sterilized food and water. Prostate cancer cells (2×10^6 cells/0.1 ml/mouse) suspended in 50% matrigel (Collaborative Research, Bedford, Mass.) in RPMI 1640 medium were injected subcutaneously into the right flank of the mice. After 4 to 6 weeks, mice with well-established tumors (0.65 to 1 cm by 0.65 to 1 cm) were used for the various experiments. In all experiments, animals received the same volume of injections (5 μl/g body weight). Tumor size and body weight were measured daily. At the end of a study, mice were sacrificed by decapitation, tumors were excised, weighed, and placed in phosphate-buffered formalin for 48 hr at room temperature and then placed in ethanol for 48 hr before preparing paraffin sections.
# [7] = doses of TPA in the range of 0.25 to 1 mg; cited from earlier work
# [8] = TPA 0.32 nM, ATRA 1 μM, 96 hours
# [9] = Treatment for 48 Hours, TPA 1 ng/ml, Taxol 5 ng/ml
# [10] = Treatment for 96 Hours, TPA 1 ng/ml, Taxol 5 ng/ml
# [11] = entire 46 day treatment interval (Group B), ATRA 0.5 nmol/g
compound,measurement,setting,value
"CCCCCCCCCCCCCC(=O)O[C@@H]1[C@@H](C)[C@@]2(O)[C@@H](C=C(CO)C[C@]3(O)C(=O)C(C)=C[C@@H]23)[C@@H]2C(C)(C)[C@]12OC(C)=O [TPA, 12-O-tetradecanoylphorbol-13-acetate]",peak blood level of TPA,[1]; after a 100 ng/g i.p. injection,~1 ng/ml and ~1.7 nM
same,peak blood level of TPA,[1]; after a 200 ng/g i.p. injection,about 3 ng/ml and ~4.8 nM
same,time of peak blood levels,[1]; i.p. 100 or 200 ng TPA per gram of body weight,30 to 60 min
same,"TPA in blood at 8, 12 or 24 hours",[1]; i.p. injection of 100 ng/g TPA,No TPA was detectable
same,TPA in blood at 8 and 24 hours,[1]; i.p. injection of 200 ng/g TPA,Measurable blood levels of TPA
same,half-life of TPA,"[1]; i.p., NCr mice",3 to 6 h
same,apoptotic cell morphology,LNCaP cells [2]; 3.2 nM TPA,morphologically distinct apoptotic cells
same,# Visible Cells (1 × 10^5),LNCaP cells [2]; [8],6.9 1 × 10^5
same,effect on LNCaP cell growth (FIG. 2),LNCaP cells [2],slight inhibitory effect on cell growth
same,# Visible Cells (1 × 10^5),LNCaP cells [2]; [9],3.7 1 × 10^5
same,# Visible Cells (1 × 10^5),LNCaP cells [2]; [10],3.2 1 × 10^5
same,% Apoptotic Cells,LNCaP cells [3]; [8],5.4%
same,% Cells in G0/G1,LNCaP cells [3]; [8],69.7%
same,% Cells in G2/M,LNCaP cells [3]; [8],8.7%
same,% Cells in S,LNCaP cells [3]; [8],15.9%
same,% Apoptotic Cells,LNCaP cells [3]; [9],10.1%
same,% Cells in G0/G1,LNCaP cells [3]; [9],77.8%
same,% Cells in G2/M,LNCaP cells [3]; [9],5.5%
same,% Cells in S,LNCaP cells [3]; [9],13.0%
same,% Apoptotic Cells,LNCaP cells [3]; [10],11.2%
same,% Cells in G0/G1,LNCaP cells [3]; [10],66.7%
same,% Cells in G2/M,LNCaP cells [3]; [10],9.5%
same,% Cells in S,LNCaP cells [3]; [10],12.3%
same,apoptotic cells (percent of pre-G0/G1 cells),"LNCaP cells [3]; 96 hours, ATRA 1 μM",same low level of apoptotic cells
same,% Caspase 3 Positive Cells,LNCaP tumors [4],0.45 ± 0.03 %
same,% Mitotic Cells,LNCaP tumors [4],0.50 ± 0.05%
same,Ratio of Mitotic Cells/Caspase 3 Cells,LNCaP tumors [4],1.13 ± 0.11
same,toxicity,"LNCaP tumors [5]; 13 days, TPA 0.16 then 0.32 nmol/g i.p. once a day",excessive toxicity (decreased body weight and one death on day 14 of the study)
same,"average tumor size, % of the initial tumor size","LNCaP tumors [5]; after 13 days, TPA 0.16 nmol/g for 2 days then 0.32 nmol/g for 11 days, i.p.",about 95%
same,percent of initial tumor size,"LNCaP tumors [6]; 21 days, once a day i.p., ATRA 0.5 nmol/g",96.4±3.1%
same,% of Mice with Tumor Growth,"LNCaP tumors [6]; Group A, 21 days",38%
same,% of Mice with Tumor Regression,"LNCaP tumors [6]; Group A, 21 days",62%
same,% of Mice with Tumor Growth,"LNCaP tumors [6]; Group B, 46 days",33%
same,% of Mice with Tumor Regression,"LNCaP tumors [6]; Group B, 46 days",67%
same,percent of initial tumor size,LNCaP tumors [6]; [11],106.1±21.0%
same,effect on body weight,LNCaP tumors [6]; treated for 46 days,significant decreases in body weight
same,toxicity in humans,[7],"only vein irritation and transient fever, and an occasional incidence of transient dyspnea"
"CC(=O)O[C@H]1C(=O)[C@@]2(C)[C@H]([C@H](OC(=O)c3ccccc3)[C@]3(O)C[C@H](OC(=O)[C@H](O)[C@@H](NC(=O)c4ccccc4)c4ccccc4)C(C)=C1C3(C)C)[C@]1(OC(C)=O)CO[C@@H]1C[C@@H]2O [Taxol, paclitaxol]",# Visible Cells (1 × 10^5),LNCaP cells [2]; [9],4.6 1 × 10^5
same,# Visible Cells (1 × 10^5),LNCaP cells [2]; [10],2.5 1 × 10^5
same,% Apoptotic Cells,LNCaP cells [3]; [9],12.9%
same,% Cells in G0/G1,LNCaP cells [3]; [9],73.0%
same,% Cells in G2/M,LNCaP cells [3]; [9],6.4%
same,% Cells in S,LNCaP cells [3]; [9],12.8%
same,% Apoptotic Cells,LNCaP cells [3]; [10],28.4%
same,% Cells in G0/G1,LNCaP cells [3]; [10],49.7%
same,% Cells in G2/M,LNCaP cells [3]; [10],8.7%
same,% Cells in S,LNCaP cells [3]; [10],12.4%
"CC1=C(/C=C/C(C)=C/C=C/C(C)=C/C(=O)O)C(C)(C)CCC1 [ATRA, all-trans-retinoic acid]",# Visible Cells (1 × 10^5),LNCaP cells [2]; [8],11.1 1 × 10^5
same,effect on LNCaP cell growth (FIG. 2),LNCaP cells [2],little effect on LNCaP cell growth
same,% Apoptotic Cells,LNCaP cells [3]; [8],3.5%
same,% Cells in G0/G1,LNCaP cells [3]; [8],73.3%
same,% Cells in G2/M,LNCaP cells [3]; [8],8.2%
same,% Cells in S,LNCaP cells [3]; [8],14.8%
same,apoptotic cells (percent of pre-G0/G1 cells),"LNCaP cells [3]; 96 hours, ATRA 1 μM",same low level of apoptotic cells
same,% Caspase 3 Positive Cells,LNCaP tumors [4],0.35 ± 0.03%
same,% Mitotic Cells,LNCaP tumors [4],0.54 ± 0.04%
same,% of Mice with Tumor Growth,"LNCaP tumors [6]; Group A, 21 days",69%
same,% of Mice with Tumor Regression,"LNCaP tumors [6]; Group A, 21 days",31%
same,% of Mice with Tumor Growth,"LNCaP tumors [6]; Group B, 46 days",83%
same,% of Mice with Tumor Regression,"LNCaP tumors [6]; Group B, 46 days",17%
same,rate of tumor growth at later time intervals (FIG. 5),"LNCaP tumors [6]; Group B, 46 days, ATRA 0.5 nmol/g",about the same rate as tumors in the vehicle control group
same,percent of initial tumor size,LNCaP tumors [6]; [11],159.2±27.0%
